Data reported in patent publication US5952000A, “Fatty acid esters of lactic acid salts as permeation enhancers” (TheraTech, Inc., priority 1997, dated 1999).

Legend:
[1] = In vitro skin flux, diclofenac from adhesive matrix systems (Example 8); type: in vitro ADME, human
Procedure: The effect of fatty acid lactylate salts on the permeation of a model acidic drug from some copolymer adhesive matrix systems was evaluated using diclofenac, a non-steroidal anti-inflammatory. The following matrix systems were prepared to test the effect of fatty acid lactylate salts on the permeation of this acidic compound from copolymer adhesives: (a) Diclofenac acid at 1.8% (w/w) in Durotak 87-2516 (National Starch and Chemical, New Jersey), a solvent based acrylic adhesive, at 92.8% (w/w) (Formula 8-A); (b) sodium diclofenac at 2.0% (w/w) in Nacor 72-9965 (National Starch and Chemical Company, New Jersey), an aqueous emulsion based acrylic adhesive, at 98% (w/w) (Formula 8-C); sodium diclofenac at 2.0% (w/w) and Robond PS-20 (Rohm and Haas, Philadelphia, Pa.) an aqueous emulsion based acrylic adhesive, at 93.6% (w/w) with polyvinylpyrrolidone (PVP, Kollidon 90, BASF, New Jersey) at 2.0% (w/w) as a thickening agent (Formula 8-E).

[2] = In vitro skin flux, testosterone from saturated aqueous solution (Example 1)
Procedure: (§1) In vitro skin flux studies were conducted using human cadaver epidermal membrane in modified Franz non-jacketed diffusion cells. […] This method involves the exposure of the full-thickness skin to water at 60° C. for a time period of 60 seconds. After this period, the epidermal membrane was gently peeled off the dermis and stored for later use in aluminum foil at -5° C.
Permeation experiments with aqueous solutions were performed using pre-saturated drug solutions containing excess drug solid (infinite dose). Prior to skin permeation experiments, the epidermal membrane was allowed to hydrate over night as described above. […]
(§2) The following sampling procedure was used for all dosage forms. At predetermined sampling time points, the entire contents of the receiver compartment were collected for drug quantitation and the receiver compartment was filled with fresh solution, taking care to eliminate any air bubbles at the skin/solution interface. The cumulative amount of drug permeated per unit area at any time t(Qt, μg/cm^2) was determined as follows: [formula] where CN is the concentration (μg/ml) of the drug in the receiver sample for the corresponding sample time, V is the volume of fluid in the receiver chamber (~6.3 cm^3), and A is the diffusional area of the cell (0.64 cm^2). […]

[3] = In vitro skin flux, testosterone from hydroalcoholic gel (Example 2)
Procedure: as §1
Permeation experiments with hydroalcoholic gels were performed using finite occluded doses. The occluded dose is an appropriate in vitro model for the application of a transdermal patch drug delivery system containing a liquid or gel reservoir.
Occluded dosing experiments were set-up according to the following procedure. […]
as §2

[4] = In vitro skin flux, estradiol from organic solvent based adhesive matrix (Example 3); type: in vitro ADME, human; settings: organic solvent based acrylic PSA; vs free acid form
Procedure: Pressure sensitive adhesive matrix systems prepared according to the following steps. First, the solids content of the adhesive solution (water or organic solvent based) was determined by placing a known weight of solution in a weighed aluminum dish and evaporating the solvents overnight in a 70° C. convection oven. The solid adhesive content of the solution was calculated by dividing the adhesive solid weight after drying by the initial total solution weight. Next, a weighed quantity of adhesive solution was added to a glass bottle and the drug substance, permeation enhancer, and other excipients were weighed and added to the adhesive solution in a quantity necessary to achieve the desired dry matrix film composition. […]
The following sampling procedure was used for all dosage forms. At predetermined sampling time points, the entire contents of the receiver compartment were collected for drug quantitation and the receiver compartment was filled with fresh solution, taking care to eliminate any air bubbles at the skin/solution interface. The cumulative amount of drug permeated per unit area at any time t(Qt, μg/cm^2) was determined as follows: [formula] where CN is the concentration (μg/ml) of the drug in the receiver sample for the corresponding sample time, V is the volume of fluid in the receiver chamber (~6.3 cm^3), and A is the diffusional area of the cell (0.64 cm^2).

[5] = In vitro skin flux, clonidine from adhesive matrix systems (Example 7); type: in vitro ADME, human
Procedure: Permeation enhancement by a fatty acid lactylate salt was also evaluated with the basic antihypertensive drug clonidine in both free base and HCl acid addition salt forms. […] (Formulas 7-B, 7-D, 7-F and 7-H respectively).

[6] = In vitro skin flux, buspirone HCl from aqueous emulsion based acrylic PSA (Example 4); type: in vitro ADME, human
Procedure: Permeation enhancement of the potassium salt form of lauroyl lactylic acid (R.I.T.A. Corp., Woodstock, Ill.) in an aqueous emulsion based acrylic pressure sensitive adhesive (PSA) was evaluated using buspirone HCl as a model drug.

[7] = In vitro skin flux, buspirone free base from organic solvent based acrylic adhesive (Example 5); type: in vitro ADME, human; settings: organic solvent based acrylic PSA
Procedure: Permeation enhancement of the potassium salt form of lauroyl lactylic acid using buspirone free base as a model drug was evaluated in an organic solvent based acrylic pressure sensitive adhesive.

Compound	enhancement by free acid form compared with Formulas 8-D and 8-F (in words) ([1]; aqueous emulsion based adhesives, "will show")	enhancement by free acid form compared with Formula 8-B (in words) ([1]; solvent based adhesive, "will show")	permeation enhancement (in words) [2]	permeation enhancement (in words) [3]	increase in permeation, acid form of diclofenac ([1]; […] sodium lauroyl lactylate, Table 8-1)	effectiveness as enhancer (in words) ([1]; all of the matrix systems tested)	effectiveness as permeation enhancer (in words) [4]	increase of clonidine permeation over unenhanced counterpart ([5]; aqueous emulsion based matrix systems, Tables 7-1, 7-2, 7-3)	effectiveness as enhancer (in words) ([5]; clonidine HCl, aqueous emulsion based matrix systems)	effectiveness as enhancer (in words) ([5]; clonidine base, organic solvent based adhesive matrix, Table 7-4)	effectiveness as permeation enhancer (in words) [6]	effectiveness as permeation enhancer (in words) [7]
CCCCCCCCCCCC(=O)OC(C)C(=O)O (centres unmarked) [lauroyl lactylic acid, reference compound]	significant reduction in enhancement	somewhat comparable results	significant permeation enhancement	significant permeation enhancement								
CCCCCCCCCCCC(=O)OC(C)C(=O)OC(C)C(=O)[O-].[Na+] (centres unmarked) [sodium lauroyl lactylate]			significant permeation enhancement	significant permeation enhancement	about 50%	consistently effective enhancer	less effective as a permeation enhancer than the free acid form	about two fold	consistently effective enhancer	not an effective enhancer		
potassium lauroyl lactylate											unexpectedly effective permeation enhancer	not an effective permeation enhancers
